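Method: 48-hour compound exposure of cells in 96-well plates, five concentrations, linear interpolation of endpoints. GI50 = concentration required for 50% inhibition of growth.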 Calls of active or inactive are those of the source. Rule as the data show it: active = GI50 up to about 1.1 µM and inactive = higher.
Assays:
Assay in all cases: inhibition of tumour cell growth, NCI panel, 48 h
SR = system: SR
K562 = system: K562
KM12 = system: KM12
MOLT-4 = system: MOLT-4
NCI-H226 = system: NCI-H226
ACHN = system: ACHN
SK-MEL-5 = system: SK-MEL-5
SK-MEL-28 = system: SK-MEL-28
SK-MEL-2 = system: SK-MEL-2
SN12C = system: SN12C
EKVX = system: EKVX
U-251 = system: U-251
HCC 2998 = system: HCC 2998
SF-539 = system: SF-539
NCI-H23 = system: NCI-H23

Measured: GI50

NCc1cccc(O)c1O
inactive: SR > 100 µM | K562 > 100 µM | KM12 > 100 µM | MOLT-4 > 100 µM | NCI-H226 > 100 µM | ACHN > 100 µM | SK-MEL-5 > 100 µM | SK-MEL-28 > 100 µM | SK-MEL-2 > 100 µM | SN12C > 100 µM | EKVX > 100 µM | U-251 > 100 µM

Cn1cc(-c2ccc3c4ccccc4n(C)c3c2)c2ccccc21
inactive: K562 67.9 µM | KM12 93.3 µM | MOLT-4 > 100 µM | NCI-H226 > 100 µM | ACHN > 100 µM | HCC 2998 > 100 µM | SK-MEL-5 > 100 µM | SK-MEL-28 > 100 µM | SK-MEL-2 > 100 µM | SF-539 > 100 µM | SN12C > 100 µM | NCI-H23 > 100 µM | EKVX > 100 µM | U-251 > 100 µM

CCCCNC(=O)OCC(COc1ccccc1OC)OC(=O)NCCCC (centres undefined)
inactive: K562 68.5 µM | KM12 > 100 µM | MOLT-4 > 100 µM | NCI-H226 > 100 µM | ACHN > 100 µM | HCC 2998 > 100 µM | SK-MEL-5 87.5 µM | SK-MEL-28 > 100 µM | SK-MEL-2 > 100 µM | SF-539 > 100 µM | SN12C > 100 µM | NCI-H23 > 100 µM | EKVX > 100 µM | U-251 > 100 µM

COc1ccc2c(=O)c(C)c(-c3ccccc3)oc2c1CN(C)C [DIMEFLINE]
inactive: SR > 100 µM | K562 > 100 µM | KM12 > 100 µM | MOLT-4 > 100 µM | NCI-H226 > 100 µM | ACHN > 100 µM | HCC 2998 > 100 µM | SK-MEL-5 > 100 µM | SF-539 > 100 µM | NCI-H23 > 100 µM

NC(CCc1ncc(C(=O)O)s1)C(=O)O (centres undefined)
inactive: K562 > 100 µM | KM12 > 100 µM | MOLT-4 > 100 µM | NCI-H226 > 100 µM | ACHN > 100 µM | HCC 2998 > 100 µM | SK-MEL-5 > 100 µM | SK-MEL-28 > 100 µM | SF-539 > 100 µM | SN12C > 100 µM | NCI-H23 > 100 µM | EKVX > 100 µM | U-251 > 100 µM

CCCCCCCCCCOC(=O)c1cc[n+](C)cc1
inactive: SR 16.3 µM | K562 16.3 µM | KM12 16.9 µM | MOLT-4 18.2 µM | NCI-H226 18.1 µM | ACHN 18.6 µM | SK-MEL-5 19.1 µM | SK-MEL-28 17.4 µM | SK-MEL-2 17.3 µM | SF-539 16.3 µM | SN12C 16.9 µM | NCI-H23 19.9 µM | EKVX 16.7 µM | U-251 15.7 µM

O=C(/C(=N/Nc1ccccc1)c1ccc([N+](=O)[O-])cc1)c1ccc([N+](=O)[O-])cc1
inactive: SR > 100 µM | K562 64.4 µM | KM12 > 100 µM | MOLT-4 > 100 µM | ACHN > 100 µM | HCC 2998 > 100 µM | SK-MEL-5 > 100 µM | SK-MEL-28 > 100 µM | SK-MEL-2 > 100 µM | SF-539 > 100 µM | SN12C > 100 µM | NCI-H23 > 100 µM | EKVX > 100 µM | U-251 > 100 µM

COc1ccc2c(C3(O)CCNCC3)c[nH]c2c1
inactive: K562 > 100 µM | KM12 > 100 µM | MOLT-4 > 100 µM | ACHN > 100 µM | HCC 2998 > 100 µM | SK-MEL-5 > 100 µM | SK-MEL-28 > 100 µM | SK-MEL-2 > 100 µM | SF-539 > 100 µM | SN12C > 100 µM | NCI-H23 > 100 µM | EKVX > 100 µM | U-251 > 100 µM

CC1CN(C(=O)CN2CCC(CCCCN(C)C)CC2)c2ccccc2NC1=O (centres undefined)
inactive: SR > 100 µM | K562 > 100 µM | MOLT-4 > 100 µM | NCI-H226 > 100 µM | ACHN > 100 µM | HCC 2998 > 100 µM | SK-MEL-5 > 100 µM | SK-MEL-28 > 100 µM | SN12C > 100 µM | NCI-H23 > 100 µM | U-251 > 100 µM

Cc1cccc(NC(=O)/C=C/c2ccc(N(CCC#N)CCC#N)cc2C)c1
inactive: K562 16.8 µM | KM12 > 100 µM | MOLT-4 > 100 µM | NCI-H226 > 100 µM | ACHN 70.3 µM | HCC 2998 > 100 µM | SK-MEL-5 > 100 µM | SK-MEL-28 > 100 µM | SK-MEL-2 > 100 µM | SF-539 > 100 µM | SN12C > 100 µM | NCI-H23 > 100 µM | EKVX > 100 µM | U-251 > 100 µM

CCCCCCCCCCCc1noc2c1C(=O)C(O)CC2 (centres undefined)
inactive: SR 27.2 µM | K562 17.2 µM | KM12 22.9 µM | MOLT-4 22.3 µM | NCI-H226 16.1 µM | ACHN 32.8 µM | SK-MEL-5 14.6 µM | SK-MEL-28 23.8 µM | SK-MEL-2 17.5 µM | SF-539 22.2 µM | SN12C 16.1 µM | NCI-H23 16.3 µM | EKVX 33.5 µM | U-251 14.6 µM

CC1CC(=O)C2CC(CO)=CCCC2C1(C)CC/C(=C/CO)CO (centres undefined)
inactive: K562 > 100 µM | KM12 > 100 µM | MOLT-4 > 100 µM | NCI-H226 > 100 µM | ACHN > 100 µM | HCC 2998 > 100 µM | SK-MEL-5 > 100 µM | SK-MEL-28 > 100 µM | SN12C > 100 µM | NCI-H23 > 100 µM | EKVX > 100 µM | U-251 > 100 µM

COc1ccc(C2=Nc3ccccc3SC(C)C2)cc1OC (centres undefined)
inactive: SR 20.8 µM | K562 25.5 µM | KM12 16.8 µM | MOLT-4 14.5 µM | NCI-H226 20.4 µM | ACHN 22.1 µM | HCC 2998 18.6 µM | SK-MEL-5 17.9 µM | SK-MEL-28 24.6 µM | SK-MEL-2 30.3 µM | SN12C 20.3 µM | NCI-H23 17.7 µM | EKVX 24.5 µM | U-251 17.2 µM

CC1(O)C(C)(O)C(C)(O)C1(C)O (centres undefined)
inactive: K562 > 100 µM | KM12 > 100 µM | MOLT-4 > 100 µM | NCI-H226 > 100 µM | ACHN > 100 µM | HCC 2998 > 100 µM | SK-MEL-5 > 100 µM | SK-MEL-28 > 100 µM | SK-MEL-2 > 100 µM | SF-539 > 100 µM | SN12C > 100 µM | NCI-H23 > 100 µM | EKVX > 100 µM | U-251 > 100 µM

COC(=O)N(C(=O)OC)C(C(=O)O)C(C)C (centres undefined)
inactive: KM12 > 100 µM | NCI-H226 > 100 µM | ACHN > 100 µM | HCC 2998 > 100 µM | SK-MEL-28 > 100 µM | SK-MEL-2 > 100 µM | SF-539 > 100 µM | SN12C > 100 µM | NCI-H23 > 100 µM | EKVX > 100 µM | U-251 > 100 µM

— ChEMBL document CHEMBL1201862, “PubChem BioAssay data set” (2004)
